Results published in ChEMBL document CHEMBL4004848, “Dregamine and tabernaemontanine derivatives as ABCB1 modulators on resistant cancer cells” (Eur J Med Chem, 2017).

What was measured:
[1] = Selectivity index, ratio of IC50 for mouse L5178Y cells to IC50 for human ABCB1 expressed in L5178Y cells
[2] = target: T1, ATP-dependent translocase ABCB1 (Homo sapiens, UniProt P08183); experiment: Inhibition of human ABCB1 expressed in mouse L5178Y cells assessed as increase in rhodamine-123 accumulation by measuring side scatter count of cells at 20 uM pretreated for 10 mins followed by rhodamine-123 addition after 20 mins by flow cytometry (reference value: 903); format: cell-based
T1 sequence (P08183 whole entry): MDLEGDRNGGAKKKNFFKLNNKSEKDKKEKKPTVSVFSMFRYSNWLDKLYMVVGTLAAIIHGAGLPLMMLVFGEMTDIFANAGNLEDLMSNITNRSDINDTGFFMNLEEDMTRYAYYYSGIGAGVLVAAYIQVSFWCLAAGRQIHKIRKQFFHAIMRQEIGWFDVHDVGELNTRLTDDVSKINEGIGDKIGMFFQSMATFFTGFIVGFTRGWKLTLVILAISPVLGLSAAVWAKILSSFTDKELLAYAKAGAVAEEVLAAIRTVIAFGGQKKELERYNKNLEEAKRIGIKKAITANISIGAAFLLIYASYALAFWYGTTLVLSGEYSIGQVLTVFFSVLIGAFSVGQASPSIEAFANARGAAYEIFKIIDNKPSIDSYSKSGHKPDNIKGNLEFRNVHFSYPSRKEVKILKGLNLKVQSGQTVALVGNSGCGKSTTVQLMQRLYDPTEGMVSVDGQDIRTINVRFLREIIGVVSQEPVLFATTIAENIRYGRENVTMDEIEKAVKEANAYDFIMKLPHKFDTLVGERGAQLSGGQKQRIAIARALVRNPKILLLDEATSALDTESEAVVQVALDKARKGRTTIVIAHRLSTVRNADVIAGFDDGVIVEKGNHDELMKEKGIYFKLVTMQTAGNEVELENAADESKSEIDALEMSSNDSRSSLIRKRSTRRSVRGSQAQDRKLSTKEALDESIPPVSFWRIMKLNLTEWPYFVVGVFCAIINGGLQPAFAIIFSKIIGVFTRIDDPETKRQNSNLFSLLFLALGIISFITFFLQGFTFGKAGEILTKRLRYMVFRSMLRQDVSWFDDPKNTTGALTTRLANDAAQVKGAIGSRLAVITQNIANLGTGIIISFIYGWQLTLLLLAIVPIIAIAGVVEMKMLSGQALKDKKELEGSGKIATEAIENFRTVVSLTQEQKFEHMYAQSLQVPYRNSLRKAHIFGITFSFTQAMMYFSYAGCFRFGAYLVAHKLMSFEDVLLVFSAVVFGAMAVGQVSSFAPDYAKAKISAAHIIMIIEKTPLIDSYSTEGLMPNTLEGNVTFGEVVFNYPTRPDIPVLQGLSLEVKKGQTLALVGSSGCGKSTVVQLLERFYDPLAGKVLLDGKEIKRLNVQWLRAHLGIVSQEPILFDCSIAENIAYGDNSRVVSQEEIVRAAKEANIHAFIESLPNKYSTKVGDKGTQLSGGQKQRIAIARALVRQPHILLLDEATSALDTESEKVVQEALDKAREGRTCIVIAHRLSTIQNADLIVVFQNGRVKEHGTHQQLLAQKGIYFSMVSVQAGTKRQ

[3] = target: T1, ATP-dependent translocase ABCB1; experiment: Inhibition of human ABCB1 expressed in mouse L5178Y cells assessed as fluorescence activity ratio at 2 uM pretreated for 10 mins followed by rhodamine-123 addition after 20 mins by flow cytometry; format: cell-based
NIH3T3 = experiment: Cytotoxicity against mouse NIH/3T3 cells after 24 hrs by MTT assay; format: cell-based; details: NIH3T3, 24 h
L5178Y = experiment: Cytotoxicity against mouse L5178Y cells after 24 hrs by MTT assay; format: functional, cell-based
[4] = target: T1, ATP-dependent translocase ABCB1; experiment: Inhibition of human ABCB1 expressed in mouse L5178Y cells assessed as increase in rhodamine-123 accumulation by measuring forward scatter count of cells at 20 uM pretreated for 10 mins followed by rhodamine-123 addition after 20 mins by flow cytometry (reference value: 2206); format: cell-based
[5] = target: T1, ATP-dependent translocase ABCB1; experiment: Inhibition of human ABCB1 expressed in mouse L5178Y cells assessed as potentiation of doxorubicin-induced cytotoxicity by measuring combination index at 4:25 doxorubicin to compound ratio after 48 hrs by MTT assay; format: cell-based
[6] = target: T1, ATP-dependent translocase ABCB1; experiment: Inhibition of human ABCB1 expressed in mouse L5178Y cells assessed as fluorescence activity ratio at 20 uM pretreated for 10 mins followed by rhodamine-123 addition after 20 mins by flow cytometry; format: cell-based
[7] = target: T1, ATP-dependent translocase ABCB1; experiment: Inhibition of human ABCB1 expressed in mouse L5178Y cells assessed as increase in rhodamine-123 accumulation by measuring side scatter count of cells at 2 uM pretreated for 10 mins followed by rhodamine-123 addition after 20 mins by flow cytometry (reference value: 903); format: cell-based
[8] = target: T1, ATP-dependent translocase ABCB1; experiment: Inhibition of human ABCB1 expressed in mouse L5178Y cells assessed as increase in rhodamine-123 accumulation by measuring forward scatter count of cells at 2 uM pretreated for 10 mins followed by rhodamine-123 addition after 20 mins by flow cytometry (reference value: 2206); format: cell-based
[9] = target: T1, ATP-dependent translocase ABCB1; experiment: Inhibition of human ABCB1 expressed in mouse L5178Y cells pretreated for 10 mins followed by rhodamine-123 addition after 20 mins by flow cytometry; format: cell-based
[10] = target: T1, ATP-dependent translocase ABCB1; experiment: Inhibition of human ABCB1 expressed in mouse L5178Y cells assessed as potentiation of doxorubicin-induced cytotoxicity by measuring combination index at 1:25 doxorubicin to compound ratio after 48 hrs by MTT assay; format: cell-based
[11] = Selectivity index, ratio of IC50 for mouse NIH/3T3 cells to IC50 for mouse L5178Y cells; format: functional
[12] = target: T1, ATP-dependent translocase ABCB1; experiment: Inhibition of human ABCB1 expressed in mouse L5178Y cells assessed as potentiation of doxorubicin-induced cytotoxicity by measuring combination index at 1:5 doxorubicin to compound ratio after 48 hrs by MTT assay; format: cell-based

Row | Compound | Activity [2] | Ratio [3] | Activity [4] | Ratio [6] | Activity [7] | Activity [8] | inhibition (INH) [9] | Ratio IC50 [1] | IC50 (NIH3T3) [µM] | IC50 (L5178Y) [µM] | CI [5] | CI [10] | Ratio IC50 [11] | CI [12]
1 | CC[C@H]1CN(C)[C@H]2Cc3c(n(Cc4ccccc4)c4ccccc34)C(=O)C[C@H]1[C@@H]2C(=O)OC | 1193 | 4.82 | 2449 | 55.74 | 1217 | 2417 | Dose-dependent effect | 0.87 | 56.1 | 33.3 |  | 0.23 | 1.68 | 
2 | CC[C@H]1CN(C)[C@H]2Cc3c([nH]c4ccccc34)/C(=N/NC(=O)OCc3ccc(OC)cc3)C[C@H]1[C@@H]2C(=O)OC | 746 | 31.88 | 2278 | 72.88 | 784 | 2262 | Dose-dependent effect | 0.65 | > 100 | 34.3 |  | 0.16 |  | 
3 | CC[C@H]1CN(C)[C@H]2Cc3c([nH]c4ccccc34)C(=S)C[C@H]1[C@@H]2C(=O)OC | 1226 | 2.99 | 2242 | 51.15 | 1120 | 2242 | Dose-dependent effect | 0.7 | > 100 | 54.5 |  |  |  | 0.22

The next lines start with results.

Row | Activity [2] | Ratio [3] | Activity [4] | Ratio [6] | Activity [7] | Activity [8] | inhibition (INH) [9] | Compound | Ratio IC50 [1] | IC50 (NIH3T3) [µM] | IC50 (L5178Y) [µM] | CI [5] | CI [10] | Ratio IC50 [11] | CI [12]
4 | 1071 | 8.84 | 2158 | 60.89 | 1046 | 2183 | Dose-dependent effect | CC[C@H]1CN(C)[C@H]2Cc3c([nH]c4ccccc34)/C(=N/Nc3ccccc3)C[C@H]1[C@@H]2C(=O)OC | 0.84 | > 100 | 44.2 | 0.34 |  |  | 
5 | 805 | 1.27 | 2301 | 30.98 | 808 | 2244 | Dose-dependent effect | CC[C@H]1CN(C)[C@H]2Cc3c([nH]c4ccccc34)/C(=N/NC(=S)NCc3cccnc3)C[C@H]1[C@@H]2C(=O)OC | 0.46 | 50.9 | 20.8 | 0.6 |  | 2.45 | 
